Molecules are shown by their SMILES.

The subject of the assay is B. burgdorferi B31. The assay is described as follows: RNA-Seq gene expression profile of B. burgdorferi persisters that survived antibiotic treatment, compared with drug free control. The class given is cell-based, Borrelia burgdorferi. To be noted: vs drug free control. The protocol:
RNA Sequencing (RNA-Seq) was performed to determine the gene expression profile of B. burgdorferi persisters that survived antibiotic treatment using next generation sequencing to shed light on the mechanisms of B. burgdorferi persistence. B. burgdorferi B31 cultures were grown for 5 days to 1×10^7 spirochetes/ml in BSK-H medium followed by treatment with 50 μg/ml doxycycline or 50 μg/ml amoxicillin for 6 days. Triplicate biological samples were used for each group. The total RNA was extracted and ribosomal RNA was removed prior to preparation of cDNA libraries for Illumina sequencing. […] The RNA-Seq data was analyzed by BLAST analysis and mapped to KEGG pathways.

[1] abbreviates: 50 μg/ml antibiotic for 6 days, more than two-fold change.

As for `CC1(C)S[C@@H]2[C@H](NC(=O)[C@H](N)c3ccc(O)cc3)C(=O)N2[C@H]1C(=O)O` [amoxicillin, reference compound], where the note is “50 μg/ml antibiotic for 6 days”, the “genes down-regulated in treated group” value stood at 174 genes; the “genes upregulated in treated group” value worked out at 342 genes; the “total genes differentially expressed between tolerant persisters and drug free group” value worked out at 516 genes.
Take `C[C@H]1c2cccc(O)c2C(=O)C2=C(O)[C@]3(O)C(=O)C(C(N)=O)=C(O)[C@@H](N(C)C)[C@@H]3[C@@H](O)[C@@H]21` [doxycycline, reference compound]: for the setting “50 μg/ml antibiotic for 6 days”, the “genes down-regulated in treated group” value came out at 340 genes; the “genes upregulated in treated group” value is given as 335 genes; the “total genes differentially expressed between tolerant persisters and drug free group” value is listed as 675 genes. Under setting [1], the “down-regulated genes identified by more than two-fold change” value is recorded as 33 genes and the “up-regulated genes identified by more than two-fold change” value worked out at 35 genes. The “clpP (BB_0757) expression, upregulated fold change in persisters” value (B31 culture treated with 50 μg/ml antibiotic for 6 days) came out at 30 fold.

The values are drawn from US20180246095A1, “COMPOSITIONS AND METHODS FOR DIAGNOSING AND TREATING LYME DISEASE” (priority 2015, published 2018).
